Inconclusive results and toxic doses are left out.
System: BDF1 mice, P388 leukemia ip, median survival T/C
Assay: NCI In Vivo Anticancer Drug Screen. Data for tumor model P388 Leukemia (intraperitoneal) in B6D2F1 (BDF1) mice
Conditions: endpoint: median survival time, higher = longer survival
How it was run: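 Survival ratio, drug arm over vehicle arm, in mice with a transplanted tumour.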

[1] = dose: 25.0 mg/kg/injection, schedule: Q01DX009 (ip), vehicle: saline with Tween-80
[2] = dose: 50.0 mg/kg/injection, schedule: Q01DX009 (ip), vehicle: saline with Tween-80
[3] = dose: 100.0 mg/kg/injection, schedule: Q01DX009 (ip), vehicle: saline with Tween-80
[4] = dose: 100.0 mg/kg/injection, schedule: Q04DX003 (ip), vehicle: saline
[5] = dose: 100.0 mg/kg/injection, schedule: Q01DX009 (ip), vehicle: saline
[6] = dose: 200.0 mg/kg/injection, schedule: Q01DX009 (ip), vehicle: saline
[7] = dose: 50.0 mg/kg/injection, schedule: Q04DX003 (ip), vehicle: saline
[8] = dose: 100.0 mg/kg/injection, schedule: Q04DX003 (ip), vehicle: saline with Tween-80
[9] = dose: 1.0 mg/kg/injection, schedule: Q01DX009 (ip), vehicle: saline
[10] = dose: 2.0 mg/kg/injection, schedule: Q01DX009 (ip), vehicle: saline

CC1(C)OCC2OC3(C(=O)O)OC(C)(C)OC3C2O1 (centres undefined)
T/C (dose: 25.0 mg/kg/injection, schedule: Q01DX009 (ip), vehicle: water): 100 % of control | T/C (dose: 50.0 mg/kg/injection, schedule: Q01DX009 (ip), vehicle: water): 96 % of control | T/C (dose: 100.0 mg/kg/injection, schedule: Q01DX009 (ip), vehicle: water): 101 % of control | T/C (dose: 200.0 mg/kg/injection, schedule: Q01DX009 (ip), vehicle: water): 99 % of control | T/C (dose: 400.0 mg/kg/injection, schedule: Q01DX009 (ip), vehicle: water): 101 % of control

S=C1SCCS1
T/C [1]: 100 % of control | T/C [2]: 95 % of control | T/C [3]: 104 % of control | T/C [4]: 91 % of control

CCOC(=O)CNC(=O)NC12CC3CC(CC(C3)C1)C2
T/C [5]: 119 % of control | T/C [6]: 104 % of control | T/C (dose: 400.0 mg/kg/injection, schedule: Q01DX009 (ip), vehicle: saline): 102 % of control

Cc1ccccc1C1(c2ccccc2C)OC(=O)c2ccccc21
T/C (dose: 100.0 mg/kg/injection, schedule: Q01DX009 (ip), vehicle: Klucel (hydroxypropylcellulose) (HPC)): 90 % of control | T/C (dose: 100.0 mg/kg/injection, schedule: Q04DX003 (ip), vehicle: Klucel (hydroxypropylcellulose) (HPC)): 95 % of control | T/C (dose: 200.0 mg/kg/injection, schedule: Q01DX009 (ip), vehicle: Klucel (hydroxypropylcellulose) (HPC)): 104 % of control | T/C (dose: 200.0 mg/kg/injection, schedule: Q04DX003 (ip), vehicle: Klucel (hydroxypropylcellulose) (HPC)): 91 % of control | T/C (dose: 400.0 mg/kg/injection, schedule: Q01DX009 (ip), vehicle: Klucel (hydroxypropylcellulose) (HPC)): 90 % of control | T/C (dose: 400.0 mg/kg/injection, schedule: Q04DX003 (ip), vehicle: Klucel (hydroxypropylcellulose) (HPC)): 87 % of control

COc1ccc(C(Br)C(Br)C(=O)c2ccc3c(c2)OCO3)cc1OC (centres undefined)
T/C (dose: 25.0 mg/kg/injection, schedule: Q04DX003 (ip), vehicle: saline): 104 % of control | T/C [7]: 90 % of control | T/C [4]: 113 % of control | T/C (dose: 200.0 mg/kg/injection, schedule: Q04DX003 (ip), vehicle: saline): 97 % of control | T/C (dose: 400.0 mg/kg/injection, schedule: Q04DX003 (ip), vehicle: saline): 90 % of control | T/C (dose: 600.0 mg/kg/injection, schedule: Q04DX003 (ip), vehicle: saline): 119 % of control

COC(=O)C1c2cc3c(cc2C(OC2OC(C)C(OC)C(C)(OC)C2OC)CC1(C)O)C(=O)c1c(O)cc2c(c1C3=O)OC1OC2(C)C(O)C([N+](C)(C)[O-])C1O (centres undefined)
T/C (dose: 3.13 mg/kg/injection, schedule: Q01DX010 (ip), vehicle: saline): 150 % of control | T/C (dose: 6.25 mg/kg/injection, schedule: Q01DX010 (ip), vehicle: saline): 165 % of control | T/C (dose: 12.5 mg/kg/injection, schedule: Q01DX010 (ip), vehicle: saline): 95 % of control

O=C(O)CNC(=O)COc1ccc(Cl)c(Cl)c1
T/C [2]: 94 % of control | T/C [3]: 92 % of control | T/C (dose: 200.0 mg/kg/injection, schedule: Q01DX009 (ip), vehicle: saline with Tween-80): 124 % of control

O=[N+]([O-])c1ccc(N/N=C2/C3CCC(C3)C2C(O)(C(F)(F)F)C(F)(F)F)c([N+](=O)[O-])c1 (centres undefined)
T/C [8]: 90 % of control | T/C (dose: 200.0 mg/kg/injection, schedule: Q04DX003 (ip), vehicle: saline with Tween-80): 90 % of control | T/C (dose: 400.0 mg/kg/injection, schedule: Q04DX003 (ip), vehicle: saline with Tween-80): 95 % of control

CCCCC(CC)COP(=O)(CC(CC)CCCC)OCC(CC)CCCC (centres undefined)
T/C [1]: 100 % of control

OC1(C2CCCCC2)C2CCCC1CCC2 (centres undefined)
T/C (dose: 12.5 mg/kg/injection, schedule: Q01DX009 (ip), vehicle: saline with Tween-80): 104 % of control | T/C [1]: 95 % of control | T/C [2]: 109 % of control | T/C (dose: 100.0 mg/kg/injection, schedule: Q04DX003 (ip), vehicle: other): 104 % of control | T/C (dose: 200.0 mg/kg/injection, schedule: Q04DX003 (ip), vehicle: other): 109 % of control | T/C (dose: 400.0 mg/kg/injection, schedule: Q04DX003 (ip), vehicle: other): 104 % of control

Nc1cc(S(N)(=O)=O)ccc1SSc1ccc(S(N)(=O)=O)cc1N
T/C [5]: 122 % of control | T/C [6]: 154 % of control

Cc1cccn2c(C)nnc12
T/C [1]: 110 % of control | T/C [2]: 101 % of control | T/C [3]: 99 % of control

C/C(=C\c1ccc(C)cc1)[N+](=O)[O-]
T/C (dose: 17.5 mg/kg/injection, schedule: Q01DX010 (ip), vehicle: saline): 95 % of control | T/C (dose: 35.0 mg/kg/injection, schedule: Q01DX010 (ip), vehicle: saline): 86 % of control | T/C (dose: 70.0 mg/kg/injection, schedule: Q01DX010 (ip), vehicle: saline): 90 % of control

c1ccc([I+]c2ccccc2)cc1
T/C [9]: 100 % of control | T/C [10]: 104 % of control | T/C (dose: 4.0 mg/kg/injection, schedule: Q01DX009 (ip), vehicle: saline): 90 % of control | T/C (dose: 12.5 mg/kg/injection, schedule: Q04DX003 (ip), vehicle: saline sonified): 115 % of control | T/C (dose: 12.5 mg/kg/injection, schedule: Q04DX003 (sc), vehicle: olive oil, sesame oil, peanut oil): 96 % of control | T/C (dose: 25.0 mg/kg/injection, schedule: Q04DX003 (sc), vehicle: olive oil, sesame oil, peanut oil): 100 % of control

COc1cccc2c1C(=O)c1c(O)c3c(c(O)c1C2=O)C[C@@](O)(/C(C)=N\NC=O)C[C@@H]3OC1CC(N)C(O)C(C)O1 (some centres undefined)
T/C [9]: 96 % of control | T/C [10]: 107 % of control | T/C (dose: 16.0 mg/kg/injection, schedule: Q01DX009 (ip), vehicle: saline): 180 % of control

COc1ccc2[nH]c3c(C)c4cc[n+](CCCCCCCC[n+]5ccc6c(C)c7[nH]c8ccc(OC)cc8c7c(C)c6c5)cc4c(C)c3c2c1
T/C (dose: 6.25 mg/kg/injection, schedule: Q04DX003 (ip), vehicle: other): 121 % of control

CCc1ccc(OS(=O)(=O)c2ccc([N+](=O)[O-])cc2)cc1
T/C (dose: 75.0 mg/kg/injection, schedule: Q01DX001 (ip), vehicle: saline with Tween-80): 104 % of control | T/C (dose: 150.0 mg/kg/injection, schedule: Q01DX001 (ip), vehicle: saline with Tween-80): 100 % of control | T/C (dose: 300.0 mg/kg/injection, schedule: Q01DX001 (ip), vehicle: saline with Tween-80): 100 % of control

N#Cc1nc2c(nc1C#N)-c1ccccc1C2=O
T/C (dose: 6.0 mg/kg/injection, schedule: Q01DX009 (ip), vehicle: Klucel (hydroxypropylcellulose) (HPC)): 100 % of control | T/C (dose: 6.25 mg/kg/injection, schedule: Q04DX003 (ip), vehicle: Klucel (hydroxypropylcellulose) (HPC)): 100 % of control | T/C (dose: 12.0 mg/kg/injection, schedule: Q01DX009 (ip), vehicle: Klucel (hydroxypropylcellulose) (HPC)): 107 % of control | T/C (dose: 12.5 mg/kg/injection, schedule: Q04DX003 (ip), vehicle: Klucel (hydroxypropylcellulose) (HPC)): 108 % of control | T/C (dose: 25.0 mg/kg/injection, schedule: Q04DX003 (ip), vehicle: Klucel (hydroxypropylcellulose) (HPC)): 104 % of control

CCN(C(C)C)C(C)C
T/C (dose: 25.0 mg/kg/injection, schedule: Q04DX003 (ip), vehicle: saline with Tween-80): 100 % of control | T/C (dose: 50.0 mg/kg/injection, schedule: Q04DX003 (ip), vehicle: saline with Tween-80): 100 % of control | T/C [8]: 100 % of control

Cc1ccc(N)c(Br)c1
T/C [1]: 100 % of control | T/C [2]: 109 % of control | T/C [3]: 118 % of control

CCOC(=O)Nc1cc(NC(C)CCCN(CC)CC)c2ncc(-c3cc(OC)c(OC)c(OC)c3)nc2n1 (centres undefined) (tested in a mixture with another compound)
T/C (dose: 25.0 mg/kg/injection, schedule: Q01DX009 (ip), vehicle: saline): 115 % of control | T/C (dose: 50.0 mg/kg/injection, schedule: Q01DX009 (ip), vehicle: saline): 120 % of control | T/C [7]: 95 % of control | T/C [4]: 109 % of control

C=C1C(=O)O[C@H]2[C@H]1[C@H](OC(=O)/C(C)=C\C)C[C@]1(CO1)[C@@H]1[C@H](OC(C)=O)C=C(C)[C@]21O
T/C (dose: 10.0 mg/kg/injection, schedule: Q01DX010 (ip), vehicle: steriod suspending solution): 100 % of control | T/C (dose: 20.0 mg/kg/injection, schedule: Q01DX010 (ip), vehicle: steriod suspending solution): 109 % of control | T/C (dose: 40.0 mg/kg/injection, schedule: Q01DX010 (ip), vehicle: steriod suspending solution): 118 % of control
